Measured values: patent publication US12601734B2, “Methods and uses of enzymatic labeling of ADP-ribose containing molecules” (THE JOHNS HOPKINS UNIVERSITY, priority 2018, dated 2026)

Tested on: HaCaT cells
Assay: ELTA labeling (32P-dATP, sequencing gel) of PAR isolated from H2O2-treated cells
Format: cell-based
Conditions: HaCaT cells pre-treated with inhibitor prior to H2O2 induction of PAR (FIG. 6b)
Description: FIG. 6A-6B illustrates the detection of ADP-ribose length using ELTA. (a) A sequencing gel of the ELTA labeling reaction of ADP-ribose monomer (lane 1), PAR (lane 2), and of ADP-ribose monomer and polymer isolated from in vitro ADP-ribosylated PARP1 by NAD^+ in the presence of the PARP inhibitor Olaparib (lane 3), by NAD^+ for 10 min in the absence of Olaparib (lane 4) and by NAD^+ for 30 min (lane 5). As a comparison, the ADP-ribose monomer and polymer isolated from in vitro ADP-ribosylated PARP1 by NAD+ with a trace of ^32P-NAD+ in the presence of Olaparib for 30 min (lane 6), by NAD^+ for 10 min in the absence of Olaparib (lane 7) and by NAD^+ for 30 min (lane 8). (b) A sequencing gel of the ELTA labeling reaction of ADP-ribose monomer and polymer isolated from in vitro ADP-ribosylated haPARP (lane 1), from untreated cancer cells (lane 2), from cancer cells with DNA damage (lane 3), from cancer cells with DNA damage and treated with PARP inhibitor (lane 4) and from cancer cells with DNA damage and treated with PARG inhibitor (lane 5).
Next, the inventors tested whether ELTA can be used to examine PAR isolated from cells (FIG. 6b). PAR was retrieved from cells using a solid-phase extraction method that allows for the high recovery of PAR without any bias of different chain length. HaCaT cells were either untreated, H2O2-treated to induce PARylation, pre-treated with PARP inhibitor Olaparib prior to H2O2 induction of PAR, or pre-treated with inhibitor against the PAR-degrading enzyme PARG (PDD 00017273) prior to H2O2 induction of PAR. As a control, the inventors also isolated PAR from in vitro modified Herpetosiphon aurantiacus PARP (haPARP), which usually generates PAR of 2-25 mer (lane 1), using the same solid-phase extraction method. As expected, we observed significant PAR signals in H2O2-treated cell samples (FIG. 6b; lane 3), which is longer from the one isolated from haPARP (lane 1). […] Taken together, ELTA can assess the length of PAR isolated in vitro or from cells.

In the case of PDD 00017273, the “PAR length distribution isolated from cells” value is reported as “stronger signals were observed at a shorter range” and the “PAR signal isolated from cells” value is reported as “enrichment of overall signals”.

`O=C(c1cc(Cc2n[nH]c(=O)c3ccccc23)ccc1F)N1CCN(C(=O)C2CC2)CC1` [Olaparib] was tested, and the “PAR signal isolated from cells” value was “reduced the signal to background level”.
